These results are taken from US7964631B2, “Fused tricyclic compounds as inhibitors of tumor necrosis factor-α” (Piramal Life Sciences Limited, priority 2004, dated 2011).

The subject of data set [1] is TNF-α. Description: Whole blood cell culture assay: LPS-induced TNF-α release (primary screening). Type of data set: cell-based, human. To be noted: test compound 1 μM, diluted whole blood of healthy donors, LPS 1 μg/ml, 4.5 h, vs DMSO control; for inhibition at 1 µM: Homo sapiens, Whole blood cell. Here is the method:
TNF-α production by lipopolysaccharide (LPS) in whole blood was measured according to the method described by Wilson et al (J. Immunol. Methods, 139: 233-240, 1991). Briefly, blood was collected from healthy donors into potassium EDTA vacutainer tubes (Vacutest Plast/Becton Dickinson) and diluted with RPMI 1640 culture medium (Gibco BRL, Pasley, UK) containing 100 U/ml penicillin and 100 μg/ml streptomycin, (100× solution, Sigma Chemical Co. St Louis, Mo.) with no added serum. The white blood cell count was adjusted to 1×10^6 cells/ml and 100 μl/well of the diluted blood was transferred into 96-well culture plates. Following cell plating, 79 μl of culture medium and 1 μl of the test compounds (final concentration 1 μM) dissolved in DMSO (dimethylsulfoxide, Sigma, Mo., USA) was added to the cells. The final concentration of DMSO was adjusted to 0.5%. 1 μl of vehicle (0.5% DMSO) was used as control. Rolipram (100 μM) was used as a standard compound. The plates were incubated for 30 min at 37° C. in an atmosphere of 5% CO2. Finally, 20 μl (10 μg/ml) per well of LPS (Escherchia coli 0127:B8, Sigma Chemical Co., St. Louis, Mo.) was added, for a final concentration of 1 μg/ml. Plates were incubated at 37° C. for 4.5 h in an atmosphere of 5% CO2. Supernatants were harvested and assayed for TNF-α by ELISA as described by the manufacturer (R&D Systems, MN) or by cytotoxicity bioassay in L929 cells. Percent inhibition of TNF-α release in comparison to the control was calculated.

Data set [2] concerns TNF-α. The data set is described as follows: LPS-induced TNF-α production in peripheral blood mononuclear cells (secondary screening). Type of data set: cell-based. The method, then:
(§1) TNF-α production by LPS in peripheral blood mononuclear cells (PBMC) was measured according to the method described by Henry et al (J. Bioorg. Med. Chem. Lett., 8: 3335-3340, 1998). Briefly, blood was collected from healthy donors into Potassium EDTA vacutainer tubes (Vacutest Plast/Becton Dickinson). PBMC were isolated using gradient centrifugation in Ficoll-Paque solution (Pharmacia). Isolated PBMC were suspended in RPMI 1640 culture medium (Gibco BRL, Pasley, UK) containing 10% fetal bovine serum (FBS) (Hyclone, Utah, USA), 100 U/ml penicillin (Sigma Chemical Co. St Louis, Mo.) and 100 μg/ml streptomycin (Sigma Chemical Co. St Louis, Mo.). The cell concentration was adjusted to 1×10^6 cells/ml. The viability as determined by trypan blue dye exclusion was uniformly ≧98%. The cell suspension (100 μl) was added to the wells of a 96-well culture plate. Following cell plating, 79 μl of the culture medium and 1 μl of eight different concentrations of the test compounds (final concentration 0.03, 0.1, 0.3, 1, 3, 10, 30, 100 μM) dissolved in DMSO (dimethylsulfoxide, Sigma, Mo., USA) were added to the cells. The final concentration of DMSO was adjusted to 0.5%. The appropriate DMSO concentration was used as control. Rolipram (30 μM) was used as a standard compound. The plates were incubated for 30 min at 37° C. in an atmosphere of 5% CO2. Finally, 20 μl (10 μg/ml) per well of LPS, (Escherchia coli 0127:B8, Sigma Chemical Co., St. Louis, Mo.) was added, for a final concentration of 1 μg/ml. The plates were incubated at 37° C. for 4.5 h in an atmosphere of 5% CO2. To determine the cytotoxicity of the test compounds, the cell viability was assessed using MTS (3-(4,5-dimethylthiazol-2-yl)-5-(3-carboxymethoxyphenyl)-2-(4-sulfonyl)-2H-tetrazolium) reagent (Promega) after 4.5 h of incubation. Supernatants were harvested and assayed for TNF-α by ELISA as described by the manufacturer (R&D Systems, MN, BD Biosciences Pharmingen) or by cytotoxicity bioassay in L929 cells. The 50% inhibitory concentration (IC50) values were calculated by a nonlinear regression method using GraphPad software (Prism 3.03)

Data set [3] concerns peripheral blood mononuclear cells (PBMC). Description: Cytotoxicity of test compounds in PBMC, cell viability by MTS reagent. Type of data set: cell-based, human. The method, then: as §1
(In general: Tetrazolium dyes change colour on reduction, which living cells bring about.)

[4] abbreviates: 4.5 h, TNF-α production in PBMC, LPS 1 μg/ml, ELISA or L929 bioassay.

SMILES strings stand for the structures.

Usually inhibition stands for the change of the read-out against control, counted positive when it falls. Read a high inhibition as a strong effect. By melting point is commonly meant the temperature of the solid-liquid transition. In the case of `COC(=O)c1cc(C)c2c(c1)S(=O)(=O)Cc1cc(N)cc(Cl)c1N2` [Example 37, 2-Amino-4-chloro-6-methyl-10,10-dioxo-10,11-dihydro-5H-10lambda*6*-thia-5-aza-dibenzo[a,d]-cycloheptene-8-carboxylic acid methylester], the melting point lay within 278 to 280 °C. Also, the inhibition at 1 µM in the data set with TNF-α [1] came to 33%.
As for `CCC(=O)Nc1cc(Cl)c2c(c1)CS(=O)(=O)c1cc(C(=O)OC)cc(C)c1O2` [Example 6, 4-Chloro-6-methyl-10,10-dioxo-2-propionylamino-10,11-dihydro-5-oxa-10lambda*6*-thia-dibenzo[a,d]cycloheptene-8-carboxylic acid methyl ester], the melting point is 226 to 228 °C. Also, the inhibition at 1 µM in the data set with TNF-α [1] came to 89%.
For `COC(=O)c1cc(C)c2c(c1)S(=O)(=O)Cc1cc(N(CCO)CCO)cc(Cl)c1O2` [Example 13, 2-[Bis-(2-hydroxy-ethyl)-amino]-4-chloro-6-methyl-10,10-dioxo-10,11-dihydro-5-oxa-10lambda*6*-thia-dibenzo[a,d]cycloheptene-8-carboxylic acid methyl ester], the melting point lay in the range of 199 to 201 °C.
The IC50 is the point on the concentration scale where inhibition reaches its midpoint. A high value points to weaker potency. `COC(=O)c1cc(C)c2c(c1)[S+]([O-])Cc1cc(N3CCNCC3)cc(Cl)c1O2.Cl` (centres unmarked) [Example 15, 4-Chloro-6-methyl-10-oxo-2-piperazin-1-yl-10,11-dihydro-5-oxa-10lambda*4*-thia-dibenzo[a,d]cycloheptene-8-carboxylic acid methyl ester hydrochloride] came in with a melting point above 320 °C. Moreover, in the data set on TNF-α [2] (setting [4]), half-maximal inhibition (IC50) was put at 550 nM. In data set [3], the “% toxicity (10 μM), 5 h” value is 25%.
Take `COC(=O)c1cc(C)c2c(c1)S(=O)(=O)Cc1cc(NC=O)cc(Cl)c1N2` [Example 38, 4-Chloro-2-formylamino-6-methyl-10,10-dioxo-10,11-dihydro-5H-10-lambda*6*-thia-5-aza-dibenzo[a,d]-cycloheptene-8-carboxylic acid methyl ester]: the “% inhibition of TNF-α release” value in the data set on TNF-α [1] is on record as 45%. In the data set on TNF-α [2] (TNF-α production in PBMC; LPS 1 μg/ml, 4.5 h; ELISA or L929 bioassay), this compound returned an IC50 of 1200 ± 1580 nM. The “% toxicity (10 μM), 5 h” value in data set [3] was determined as 10 ± 04%.
As to `COC(=O)c1cc(C)c2c(c1)S(=O)(=O)Cc1cc(N3CCNCC3)cc(Cl)c1O2.CS(=O)(=O)O` [Example 17, 4-Chloro-6-methyl-10,10-dioxo-2-piperazin-1-yl-10,11-dihydro-5-oxa-10lambda*6*-thia-dibenzo[a,d]cycloheptene-8-carboxylic acid methyl ester mesylate], the melting point lay in the range of 279 to 281 °C. In the data set with TNF-α [2] (TNF-α production in PBMC; LPS 1 μg/ml, 4.5 h; ELISA or L929 bioassay; mesylate), this compound returned an IC50 of 100 nM. Further, the “% toxicity (10 μM), 5 h” value in data set [3] turned out to be 66%.
With `Cc1cc(C=O)cc2c1Oc1c(Cl)cc(N3CCNCC3)cc1CS2(=O)=O` [Example 35, 4-Chloro-6-methyl-10,10-dioxo-2-piperazin-1-yl-10,11-dihydro-5-oxa-10lambda*6*-thia-dibenzo[a,d]cycloheptene-8-carbaldehyde], in the data set on TNF-α [1], the inhibition at 1 µM was found to be 45%. It took 1400 nM to reach half-maximal inhibition in the data set on TNF-α [2] (setting [4]) (IC50). For the same compound, the “% toxicity (10 μM), 5 h” value in data set [3] came out at 07%.
The compound `COC(=O)c1cc(C)c2c(c1)S(=O)(=O)Cc1cc(NC(=O)COC(C)=O)cc(Cl)c1O2` [Example 5B, 2-(2-Acetoxy-acetylamino)-4-chloro-6-methyl-10,10-dioxo-10,11-dihydro-5-oxa-10lambda*6*-thia-dibenzo[a,d]cycloheptene-8-carboxylic acid methyl ester] had an IC50 in the data set with TNF-α [2] (setting [4]) of 9100 ± 1600 nM. For the same compound, the “% toxicity (10 μM), 5 h” value in data set [3] is reported as 00%.
`COC(=O)c1ccc2c(c1)S(=O)(=O)Cc1ccccc1C2O` (centres unmarked) [Example 40, 5-Hydroxy-10,10-dioxo-10,11-dihydro-5H-10lambda*6*-thia-dibenzo[a,d]cycloheptene-8-carboxylic acid methyl ester] gave an IC50 with TNF-α [2] (setting [4]) above 10000 nM. Moreover, the “% toxicity (10 μM), 5 h” value in data set [3] is recorded as 8%.
`COC(=O)c1cc(C)c2c(c1)S(=O)(=O)Cc1ccc(NCCN)c(Cl)c1O2.Cl` [Example 31, 3-(2-Amino-ethylamino)-4-chloro-6-methyl-10,10-dioxo-10,11-dihydro-5-oxa-10lambda*6*-thia-dibenzo[a,d]cycloheptene-8-carboxylic acid methyl ester hydrochloride]: in the data set with TNF-α [1], the inhibition at 1 µM was found to be 66%. This compound returned an IC50 with TNF-α [2] (setting [4]) of 840 nM. Further, the “% toxicity (10 μM), 5 h” value in data set [3] worked out at 21%.
In turn, `COC(=O)c1cc(C)c2c(c1)S(=O)(=O)Cc1cc(NC(=O)CCl)cc(Cl)c1O2` [Example 4, 4-Chloro-2-(2-chloro-acetylamino)-6-methyl-10,10-dioxo-10,11-dihydro-5-oxa-10lambda*6*-thia-dibenzo[a,d]cycloheptene-8-carboxylic acid methyl ester] came in with a melting point of 292 to 293 °C.
`CS(=O)(=O)O.Cc1cc(C(=O)O)cc2c1Oc1c(Cl)cc(N3CCNCC3)cc1CS2(=O)=O` [Example 19, 4-Chloro-6-methyl-10,10-dioxo-2-piperazin-1-yl-10,11-dihydro-5-oxa-10lambda*6*-thia-dibenzo[a,d]cycloheptene-8-carboxylic acid mesylate] came in with a melting point of 278 to 280 °C.
The compound `CCN1CCN(c2cc(Cl)c3c(c2)CS(=O)(=O)c2cc(CO)cc(C)c2O3)CC1` [Example 34, [4-Chloro-2-(4-ethyl-piperazin-1-yl)-6-methyl-10,10-dioxo-10,11-dihydro-5-oxa-10lambda*6*-thia-dibenzo[a,d]cyclohepten-8-yl]-methanol] returned a melting point of 230 to 232 °C.
Take `COC(=O)c1cc(C)c2c(c1)S(=O)(=O)Cc1cc(NC(=O)CO)cc(Cl)c1O2` [Example 5A, 4-Chloro-2-(2-hydroxy-acetylamino)-6-methyl-10,10-dioxo-10,11-dihydro-5-oxa-10lambda*6*-thia-dibenzo[a,d]cycloheptene-8-carboxylic acid methyl ester]: 8600 ± 1300 nM corresponded to half-maximal inhibition in the data set with TNF-α [2] (setting [4]) (IC50). Moreover, the “% toxicity (10 μM), 5 h” value in data set [3] is 00%.
For `CCOC(=O)c1cc(C)c2c(c1)S(=O)(=O)Cc1cc(NC=O)cc(Cl)c1O2` [Example 10, 4-Chloro-2-formylamino-6-methyl-10,10-dioxo-10,11-dihydro-5-oxa-10lambda*6*-thia-dibenzo[a,d]cycloheptene-8-carboxylic acid ethyl ester], the melting point fell in the range of 202 to 204 °C.
Still for that read-out and setting: for `COC(=O)c1cc(C)c2c(c1)S(=O)(=O)Cc1cc(N3CCOCC3)cc(Cl)c1O2` [Example 30, 4-Chloro-6-methyl-2-morpholin-4-yl-10,10-dioxo-10,11-dihydro-5-oxa-10lambda*6*-thia-dibenzo[a,d]cycloheptene-8-carboxylic acid methyl ester] the value was above 320 °C.
Turning to `COC(=O)c1cc(C)c2c(c1)S(=O)(=O)Cc1cc(N(CCCl)CCCl)cc(Cl)c1O2`, the melting point lay in the range of 190 to 191 °C.
